# In patent US11459337B2, “Isothiazolo[5,4-D]pyrimidine compound as IRAK4 inhibitor” (priority 2018, dated 2022):
# pIC50: −log10 of the molar value. Like-named read-outs stand apart in the source and are kept apart here.
# Key:
# human IRAK4 = human IRAK4 (Homo sapiens (Human), UniProt Q9NWZ3); experiment: 33P-labeled kinase activity assay (Reaction Biology Corp), in vitro enzymatic activity; format: biochemical; conditions: 20 μM ATP, 3 nM kinase, MBP substrate
# Experimental: The inhibitory activity of the test compounds against human IRAK4 was evaluated by measuring IC50 values in a ^33P-labeled kinase activity assay (Reaction Biology Corp). Buffer conditions: 20 mM Hepes (pH 7.5), 10 mM MgCl2, 1 mM EGTA, 0.02% Brij35, 0.02 mg/mL BSA, 0.1 mM Na3VO4, 2 mM DTT, 1% DMSO. Procedures: The test compound was dissolved in DMSO at room temperature to prepare a 10 mM solution for later use. The substrate was dissolved in fresh buffer, to which the kinase was added and mixed well. The DMSO solution containing the test compound was added to the above mixed reaction system by an acoustic technique (Echo 550). The concentrations of the compounds in reaction system were 10 μM, 3.33 μM, 1.11 μM, 0.370 μM, 0.123 μM, 41.2 nM, 13.7 nM, 4.57 nM, 1.52 nM, and 0.508 nM. After 15 minutes of incubation, the reaction was started by adding ^33P-ATP (activity: 0.01 μCi/μL; the corresponding concentration is listed in Table 1). Supplier's catalog number, lot number and concentration information in the reaction system for IRAK4 and its substrate are listed in Table 1. After 120 minutes of reaction at room temperature, the resulting solution was loaded on P81 ion exchange chromatography paper sheet (Whatman #3698-915). After repeated washing with 0.75% phosphoric acid solution, the radioactivity of the phosphorylated substrate residue on the paper sheet was measured. The kinase activity data are shown as a comparison of the kinase activity of the test compound and the kinase activity of the blank (DMSO only) and a curve was fitted using Prism4 software (GraphPad) to give IC50 values, with the experimental results shown in Table 2. [table]
# THP-1 cells = experiment: TNF-α ELISA assay in LPS-stimulated THP-1 cells; format: cell-based, human; conditions: TNF-α in supernatant, 150 ng/mL LPS
# Experimental: TNF-α ELISA Assay in THP-1 Cells THP-1 human acute unicellular leukemia cells were purchased from ATCC (Cat #TIB-202) and incubated in a 37° C., 5% CO2 incubator. The medium was RPMI1640 (Gibco, Cat #22400-105), the supplementary was 10% FBS (Gibco, Cat #10091148); 1% PenStrep (Gibco, Cat #15140); 0.05 mM 2-mercaptoethanol (Sigma, Cat #M6250). TNF-α content in the culture supernatant was measured by a TNF-α Elisa kit. TNF-α was produced by stimulation of THP-1 cells with 150 ng/mL LPS (Sigma, Cat #L6529). Normal THP-1 cells in logarithmic phase were inoculated in 96-well plates (Corning #3599) at a certain concentration (1×10^5/100 μL) and then incubated in an incubator. After two hours, 16.7 μL of test compound of different concentrations (8×final concentration) was added and the mixture was incubated. After one hour, 16.7 μL of 1200 ng/mL LPS was added and the mixture was incubated. After 18 hours, the culture was centrifuged and the supernatant was collected. The TNF-α content was measured by a TNF-α Elisa kit. Finally, the OD signals (OD450-OD570) were read on an envision plate reader. The OD450-OD570 signals were converted to percent inhibition. Inhibition %=(ZPE−sample)/(ZPE−HPE)×100. “HPE” represents the OD450-OD570 signal value of the control without LPS-stimulated cells, and “ZPE” represents the OD450-OD570 signal value of the control with LPS-stimulated cells. IC50 values for compounds were calculated by XLFit in the Excel. Y=Bottom+(Top−Bottom)/(1+(IC50/X)^HillSlope). Equation: […]
# [1] = Pharmacokinetic study of oral and intravenous test compounds in SD rats; format: in vivo; conditions: rat, plasma, SD male rats; for AUC(0-t): read-out: Area under plasma concentration-time curve AUC0-last
# Experimental: Pharmacokinetic Study of Oral and Intravenous Test Compounds in SD Rats The test compound was mixed with a solution containing 10% of methyl pyrrolidone, 10% of polyethylene glycol stearate and 80% of water. The mixture was vortexed and sonicated to prepare a 1.5 mg/mL clarified solution, which was then filtered through a microporous membrane for later use. SD male rats aged 7 to 10 weeks were selected and administered intravenously with a dose of the candidate compound at 3 mg/kg. The test compound was mixed with 0.5% aqueous methylcellulose solution. The mixture was vortexed and sonicated to prepare a 2 mg/mL suspension for later use. SD male rats aged 7 to 10 weeks were selected and orally administered with a dose of the candidate compound at 10 mg/kg. Whole blood was collected at certain time points, and plasma was separated. The drug concentration was measured by LC-MS/MS, and pharmacokinetic parameters were calculated using Phoenix WinNonlin software (Pharsight, USA).
# human IRAK4, sequence (Q9NWZ3 whole entry): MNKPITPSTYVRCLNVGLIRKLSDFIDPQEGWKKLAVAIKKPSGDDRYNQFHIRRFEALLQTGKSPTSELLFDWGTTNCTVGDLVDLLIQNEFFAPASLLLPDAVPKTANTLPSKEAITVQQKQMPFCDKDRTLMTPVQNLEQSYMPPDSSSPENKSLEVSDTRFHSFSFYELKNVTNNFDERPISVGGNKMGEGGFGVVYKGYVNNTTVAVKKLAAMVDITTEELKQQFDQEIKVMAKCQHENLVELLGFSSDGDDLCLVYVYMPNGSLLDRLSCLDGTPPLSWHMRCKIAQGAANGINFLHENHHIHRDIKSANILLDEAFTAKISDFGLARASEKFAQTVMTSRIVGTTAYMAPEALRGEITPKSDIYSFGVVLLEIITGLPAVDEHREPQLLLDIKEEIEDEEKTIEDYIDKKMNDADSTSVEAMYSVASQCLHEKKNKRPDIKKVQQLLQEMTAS
pIC50 (human IRAK4),"pIC50 (THP-1 cells; Homo sapiens, THP-1, 18 h)",Compound,also measured
7.05,–,Cc1nsc2nc(Nc3cnn(C4CCOCC4)c3)nc(O[C@H]3CC[C@H](N4CCOCC4)CC3)c12 [WX002],–
8.06,–,Cn1cc(Nc2nc(N[C@H]3CC[C@H](N4CCOCC4)CC3)c3c(C4CCOCC4)nsc3n2)cn1 [WX005],–
8.00,6.31,Cc1nsc2nc(Nc3cnn([C@H]4CCOC4)c3)nc(N[C@H]3CC[C@H](N4CCOCC4)CC3)c12 [WX006],–
7.57,–,Cc1nsc2nc(Nc3cnn(C4CCOC4)c3)nc(N[C@H]3CC[C@H](N4CCOCC4)CC3)c12 (stereo partly shown) [WX008],pIC50 (THP-1 cells; 18 hours): 6.55
7.34,–,Cc1nsc2nc(Nc3cnn(CCO)c3)nc(N[C@H]3CC[C@H](N4CCOCC4)CC3)c12 [WX010],–
6.45,–,Cc1nsc2nc(Nc3cnn(CC(=O)O)c3)nc(N[C@H]3CC[C@H](N4CCOCC4)CC3)c12 [WX011],–
7.22,–,Cc1nsc2nc(Nc3cnn(C4CCOCC4)c3)nc(N(C)[C@H]3CC[C@H](N4CCOCC4)CC3)c12 [WX013],–
7.52,6.18,Cc1nsc2nc(Nc3cnn(C[C@H]4COCCO4)c3)nc(N[C@H]3CC[C@H](N4CCOCC4)CC3)c12 [WX014],–
7.69,6.02,Cc1nsc2nc(Nc3cnn(C[C@@H]4COCCO4)c3)nc(N[C@H]3CC[C@H](N4CCOCC4)CC3)c12 [WX015],–
7.63,–,Cc1nsc2nc(Nc3cnn(C4CCOCC4)c3)nc(N[C@H]3CC[C@H](N4CCNCC4)CC3)c12 [WX025],–
8.48,6.19,CC(=O)N1CCN([C@H]2CC[C@H](Nc3nc(Nc4cnn(C5CCOCC5)c4)nc4snc(C)c34)CC2)CC1 [WX027],–
8.80,6.63,CCOC(=O)N1CCN([C@H]2CC[C@H](Nc3nc(Nc4cnn(C5CCOCC5)c4)nc4snc(C)c34)CC2)CC1 [WX028],–
8.42,–,Cc1nsc2nc(Nc3cnn(C4CCOCC4)c3)nc(N[C@H]3CC[C@H](N4CCN(C(C)C)CC4)CC3)c12 [WX029],–
8.12,6.51,Cc1nsc2nc(Nc3cnn(C4CCOCC4)c3)nc(N[C@H]3CC[C@H](N4CCN(C)CC4)CC3)c12 [WX030],–
8.62,6.50,Cc1nsc2nc(Nc3cnn(C4CCOCC4)c3)nc(N[C@H]3CC[C@H](N4CCN(C5CC5)CC4)CC3)c12 [WX031],–
7.82,–,COC(=O)N1CCN([C@H]2CC[C@H](Nc3nc(Nc4cnn(C5CCOC5)c4)nc4snc(C)c34)CC2)CC1 (stereo partly shown) [WX032],–
7.89,–,COC(=O)N1CCN([C@H]2CC[C@H](Nc3nc(Nc4cnn([C@@H]5CCOC5)c4)nc4snc(C)c34)CC2)CC1 [WX033],–
7.89,–,COC(=O)N1CCN([C@H]2CC[C@H](Nc3nc(Nc4cnn([C@H]5CCOC5)c4)nc4snc(C)c34)CC2)CC1 [WX034],–
7.97,–,COC(=O)N1CCN([C@H]2CC[C@H](Nc3nc(Nc4cnn(C)c4)nc4snc(C)c34)CC2)CC1 [WX035],–

pIC50 (human IRAK4),"pIC50 (THP-1 cells; Homo sapiens, THP-1, 18 h)",Compound,also measured
8.26,5.38,Cc1nsc2nc(Nc3cnn(C4CCOCC4)c3)nc(NC3CCC(N4CCCNCC4)CC3)c12 (stereo not shown) [WX036],–
8.04,6.53,Cc1nsc2nc(Nc3cnn(C4CCOCC4)c3)nc(NC3CCC(N4CCCN(C)CC4)CC3)c12 (stereo not shown) [WX037],–
8.89,6.67,CC(=O)N1CCCN(C2CCC(Nc3nc(Nc4cnn(C5CCOCC5)c4)nc4snc(C)c34)CC2)CC1 (stereo not shown) [WX038],–
8.10,6.86,COC(=O)N1CCCN(C2CCC(Nc3nc(Nc4cnn(C5CCOCC5)c4)nc4snc(C)c34)CC2)CC1 (stereo not shown) [WX039],–
6.56,–,Cc1nsc2nc(Nc3cnn(C4CCOCC4)c3)nc(N[C@H]3CC[C@H](N4C[C@H]5C[C@@H]4CN5C)CC3)c12 [WX045],–
7.53,6.05,COC(=O)N1C[C@H]2C[C@@H]1CN2[C@H]1CC[C@H](Nc2nc(Nc3cnn(C4CCOCC4)c3)nc3snc(C)c23)CC1 [WX047],–
6.34,–,Cc1nsc2nc(Nc3cnn(C4CCOCC4)c3)nc(N[C@H]3CC[C@H](N4CCNC(=O)C4)CC3)c12 [WX048],–
7.95,6.29,Cc1nsc2nc(Nc3cnn(C4CCOCC4)c3)nc(N[C@H]3CC[C@H](N4CCNC(C)C4)CC3)c12 (stereo partly shown) [WX049],–
7.87,6.16,Cc1nsc2nc(Nc3cnn(C4CCOCC4)c3)nc(N[C@H]3CC[C@H](N4CCNC5(CC5)C4)CC3)c12 [WX050],–
7.86,–,Cc1nsc2nc(Nc3cnn(C4CCOCC4)c3)nc(N[C@H]3CC[C@H](N4CCNCC4C)CC3)c12 (stereo partly shown) [WX051],–
8.74,–,Cc1nsc2nc(Nc3cnn(C4CCOCC4)c3)nc(N[C@H]3CC[C@H](N4CCC(O)CC4)CC3)c12 [WX052],–
6.44,–,Cc1nsc2nc(Nc3cnn(C4CCOCC4)c3)nc(N[C@H]3CC[C@H](N4CCOCC4=O)CC3)c12 [WX054],–
7.93,6.78,N#CCc1nsc2nc(Nc3cnn(C4CCOCC4)c3)nc(N[C@H]3CC[C@H](N4CCOCC4)CC3)c12 [WX055],–
7.77,–,O=C(O)Cc1nsc2nc(Nc3cnn(C4CCOCC4)c3)nc(N[C@H]3CC[C@H](N4CCOCC4)CC3)c12 [WX056],–
8.30,–,Cc1nsc2nc(Nc3cnn(C4CCOCC4)c3)nc(N[C@H]3CC[C@H](N4CCC(C(=O)O)CC4)CC3)c12 [WX057],–
8.68,–,Cc1nsc2nc(Nc3cnn(C4CCOCC4)c3)nc(N[C@H]3CC[C@H](N4CCC(N(C)C)CC4)CC3)c12 [WX058],–
8.96,–,COC(=O)N1CCN([C@H]2CC[C@H](Nc3nc(Nc4cnn(C5CCC(F)(F)CC5)c4)nc4snc(C)c34)CC2)CC1 [WX059],–
8.14,–,Cc1nsc2nc(Nc3cnn(C4CCOCC4)c3)nc(N[C@H]3CC[C@H](N4CC(O)C4)CC3)c12 [WX060],–
–,–,"NC(=O)C[C@H]1CCc2sc3ncnc(O[C@H]4CC[C@H](N5CCOCC5)CC4)c3c21 [WXR2, ND-2110, reference compound]","Vd ([1]; Intravenous, 3 mg/kg, read-out: Apparent volume of distribution Vdss): 1.6 L/kg; AUC(0-t) ([1]; Intravenous, 3 mg/kg): 3.68 µM·h; clearance ([1]; Intravenous, 3 mg/kg, read-out: Clearance CL): 33.2 mL/min/kg; half-life ([1]; Intravenous, 3 mg/kg, read-out: Half life T1/2 (converted)): 78 min; AUC(0-t) ([1]; Oral, 10 mg/kg): 2.13 µM·h; bioavailability ([1]; Oral, 10 mg/kg, read-out: Bioavailability F): 18%; Cmax ([1]; Oral, 10 mg/kg, read-out: Peak concentration Cmax): 893 nM; Tmax ([1]; Oral, 10 mg/kg, read-out: Time to peak Tmax): 36 min"

Compound,pIC50 (human IRAK4),"pIC50 (THP-1 cells; Homo sapiens, THP-1, 18 h)",also measured
Cc1nsc2nc(Nc3cnn(C4CCOCC4)c3)nc(N[C@H]3CC[C@H](N4CC5CC(C4)N5)CC3)c12 [WX040],7.52,–,–
Cc1nsc2nc(Nc3cnn(C4CCOCC4)c3)nc(N[C@H]3CC[C@H](N4CC5CC(C4)N5C)CC3)c12 [WX041],7.67,–,–
CC(=O)N1C2CC1CN([C@H]1CC[C@H](Nc3nc(Nc4cnn(C5CCOCC5)c4)nc4snc(C)c34)CC1)C2 [WX043],7.91,–,–
